For experiment [1], the target named is T1, Oxysterols receptor LXR-beta (Homo sapiens, UniProt P55055).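 Note: Cell-based luminescence dose-response assay of agonist activity at LXR, run as a confirmatory counterscreen to a daf-12 agonist screen; HEK293 cells with Gal4-LXR fusion and GAL4-driven luciferase reporter; agonist potency from rising luciferase signal of a Gal4-LXR reporter.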
T1 sequence (P55055 whole entry): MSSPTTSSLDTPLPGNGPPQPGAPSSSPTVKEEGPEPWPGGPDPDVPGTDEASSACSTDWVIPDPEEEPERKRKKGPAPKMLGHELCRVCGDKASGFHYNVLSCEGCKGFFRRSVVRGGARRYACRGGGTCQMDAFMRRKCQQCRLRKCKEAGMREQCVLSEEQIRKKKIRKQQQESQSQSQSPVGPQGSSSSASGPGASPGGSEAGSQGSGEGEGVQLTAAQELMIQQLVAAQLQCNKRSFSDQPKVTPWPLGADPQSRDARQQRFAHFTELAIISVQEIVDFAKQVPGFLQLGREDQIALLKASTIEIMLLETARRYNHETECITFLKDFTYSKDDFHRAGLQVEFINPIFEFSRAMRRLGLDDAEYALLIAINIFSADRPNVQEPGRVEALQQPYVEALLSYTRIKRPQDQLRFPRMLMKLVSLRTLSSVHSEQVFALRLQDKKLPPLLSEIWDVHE
Type of experiment: functional, cell-based.

The target in experiment [2] is T2, Caspase-3 (Homo sapiens, UniProt P42574).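 Note: Dose-response selectivity test against caspase-3 for candidate inhibitors of sentrin-specific proteases (SENPs).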
T2 sequence (P42574 whole entry): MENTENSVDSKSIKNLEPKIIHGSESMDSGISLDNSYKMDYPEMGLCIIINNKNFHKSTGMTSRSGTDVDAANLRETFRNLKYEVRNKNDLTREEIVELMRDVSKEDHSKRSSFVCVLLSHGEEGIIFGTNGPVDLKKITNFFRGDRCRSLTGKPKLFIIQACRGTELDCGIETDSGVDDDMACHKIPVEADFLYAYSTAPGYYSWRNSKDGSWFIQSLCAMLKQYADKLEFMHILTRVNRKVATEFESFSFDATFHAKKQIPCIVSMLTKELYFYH
Type of experiment: functional.

Experiment [3] has as its target T3, Sentrin-specific protease 6 (Homo sapiens, UniProt Q9GZR1).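 Note: Luminescence-based dose-response confirmatory assay of SENP6 inhibition, following up an ultra-high-throughput screen.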
T3 sequence (Q9GZR1 whole entry): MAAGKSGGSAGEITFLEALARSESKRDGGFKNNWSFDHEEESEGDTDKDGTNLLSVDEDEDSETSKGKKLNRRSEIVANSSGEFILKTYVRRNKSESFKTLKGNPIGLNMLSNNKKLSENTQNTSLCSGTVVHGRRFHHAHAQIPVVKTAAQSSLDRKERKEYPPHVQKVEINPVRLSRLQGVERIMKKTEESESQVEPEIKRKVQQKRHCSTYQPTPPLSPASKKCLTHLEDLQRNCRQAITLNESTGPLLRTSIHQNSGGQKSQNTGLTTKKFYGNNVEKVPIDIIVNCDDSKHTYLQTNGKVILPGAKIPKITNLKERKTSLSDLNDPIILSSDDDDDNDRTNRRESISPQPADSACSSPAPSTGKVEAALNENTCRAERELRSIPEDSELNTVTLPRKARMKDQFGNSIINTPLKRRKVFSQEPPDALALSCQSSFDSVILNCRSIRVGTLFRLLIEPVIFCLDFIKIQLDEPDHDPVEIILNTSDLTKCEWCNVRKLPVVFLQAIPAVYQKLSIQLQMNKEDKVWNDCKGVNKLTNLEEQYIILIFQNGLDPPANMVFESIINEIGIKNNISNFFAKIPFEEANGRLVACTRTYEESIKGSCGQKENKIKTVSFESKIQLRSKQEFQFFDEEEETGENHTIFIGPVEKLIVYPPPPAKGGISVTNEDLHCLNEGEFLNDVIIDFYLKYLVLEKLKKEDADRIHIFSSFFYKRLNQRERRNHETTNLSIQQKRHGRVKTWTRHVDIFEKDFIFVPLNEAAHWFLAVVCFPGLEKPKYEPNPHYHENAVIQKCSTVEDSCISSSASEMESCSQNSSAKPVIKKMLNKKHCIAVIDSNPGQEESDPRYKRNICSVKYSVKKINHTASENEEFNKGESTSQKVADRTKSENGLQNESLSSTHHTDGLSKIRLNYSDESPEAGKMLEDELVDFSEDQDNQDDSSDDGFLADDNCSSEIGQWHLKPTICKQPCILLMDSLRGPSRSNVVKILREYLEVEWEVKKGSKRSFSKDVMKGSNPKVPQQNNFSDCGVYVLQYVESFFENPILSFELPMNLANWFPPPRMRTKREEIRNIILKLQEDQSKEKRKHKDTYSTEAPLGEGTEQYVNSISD
In kind it is functional.

In experiment [4] the target is T4, Sentrin-specific protease 7 (Homo sapiens, UniProt Q9BQF6).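 Note: Luminescence-based dose-response confirmation of ultra-high-throughput screening hits, measuring inhibition of SENP7.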
T4 sequence (Q9BQF6 whole entry): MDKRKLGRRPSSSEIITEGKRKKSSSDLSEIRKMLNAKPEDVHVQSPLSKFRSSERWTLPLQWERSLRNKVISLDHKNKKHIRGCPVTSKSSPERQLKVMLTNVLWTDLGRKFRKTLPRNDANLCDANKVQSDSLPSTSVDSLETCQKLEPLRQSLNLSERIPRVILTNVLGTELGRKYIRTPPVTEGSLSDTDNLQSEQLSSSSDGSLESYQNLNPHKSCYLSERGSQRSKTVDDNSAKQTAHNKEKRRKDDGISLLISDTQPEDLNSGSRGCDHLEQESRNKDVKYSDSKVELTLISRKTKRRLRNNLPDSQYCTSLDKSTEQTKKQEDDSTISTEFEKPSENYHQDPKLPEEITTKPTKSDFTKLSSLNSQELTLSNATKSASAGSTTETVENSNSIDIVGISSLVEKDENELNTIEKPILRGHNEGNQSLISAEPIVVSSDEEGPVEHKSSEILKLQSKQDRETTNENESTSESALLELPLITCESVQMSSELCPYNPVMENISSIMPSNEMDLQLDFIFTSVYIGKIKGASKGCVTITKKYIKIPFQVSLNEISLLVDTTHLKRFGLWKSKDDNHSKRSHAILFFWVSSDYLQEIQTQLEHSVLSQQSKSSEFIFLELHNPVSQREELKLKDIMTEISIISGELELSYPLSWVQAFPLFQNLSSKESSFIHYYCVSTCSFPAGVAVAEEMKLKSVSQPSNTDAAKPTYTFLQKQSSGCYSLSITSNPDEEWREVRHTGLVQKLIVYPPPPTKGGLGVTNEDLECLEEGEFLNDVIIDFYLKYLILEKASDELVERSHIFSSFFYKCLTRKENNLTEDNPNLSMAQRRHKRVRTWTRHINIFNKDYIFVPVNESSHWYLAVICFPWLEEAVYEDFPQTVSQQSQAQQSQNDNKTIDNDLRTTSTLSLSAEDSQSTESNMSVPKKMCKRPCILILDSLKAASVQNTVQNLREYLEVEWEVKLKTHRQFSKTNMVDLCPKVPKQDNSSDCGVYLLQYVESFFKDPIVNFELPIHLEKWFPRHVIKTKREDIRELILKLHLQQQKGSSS
Type of experiment: functional.

Experiment [5] is described as follows: cells.
Experiment [6] addresses T5, Sentrin-specific protease 8 (Homo sapiens, UniProt Q96LD8).
T5 sequence (Q96LD8 whole entry): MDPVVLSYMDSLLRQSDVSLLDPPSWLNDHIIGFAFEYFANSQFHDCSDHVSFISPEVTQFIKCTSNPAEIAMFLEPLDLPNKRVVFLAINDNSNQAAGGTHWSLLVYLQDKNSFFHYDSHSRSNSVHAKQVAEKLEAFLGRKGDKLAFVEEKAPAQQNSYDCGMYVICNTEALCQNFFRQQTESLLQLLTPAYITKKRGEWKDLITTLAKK
In kind it is functional.

Experiment [7] is described as follows: Luminescence Cell-Based Dose Confirmation HTS to Identify Activators of 5'UTR Stem-Loop Driven Alpha-Synuclein mRNA Translation in H4 Neuroglioblastoma Cells. [Related pubchem assays: 1829 (Project Summary), 1814 (Primary HTS)]. Type of experiment: functional.
Experiment [8] is described as follows: Luminescence Cell-Based Dose Response HTS to Identify Activators of Luciferase Translation or Activity in H4 […] Cells. [Related pubchem assays: 1829 (Project Summary), 1814 (Primary HTS)]. Type of experiment: functional.
Experiment [9] deals with H4. Put plainly: Luminescence Cell-Based Dose Response HTS to Identify Activators of 5'UTR Stem-Loop Driven Prion Protein mRNA Translation in H4 Neuroglioblastoma Cells. [Related pubchem assays: 1829 (Project Summary), 1814 (Primary HTS)]. In kind it is functional. Conditions: Homo sapiens.

Broadly, the EC50 is the concentration at which the effect is half-maximal. By IC50 is commonly meant the concentration at which inhibition is half-maximal.

Activity calls are given as the source filed them.

In the case of `C(=N\Nc1ccccc1)/c1nc2ccccc2s1`, the EC50 in [1] and in [5] was > 67.5 µM (inactive) throughout. The IC50 in [2] is 26 µM (active); in experiment [3] it was > 100 µM (inactive); in experiment [4], 1.6 µM (active); in experiment [6] it was > 100 µM (inactive).
For `CSc1ncccc1C(=O)OCc1ccccc1`, the concentration for half-maximal inhibition (IC50) in [2] was 21.3 µM (active); in experiment [3] it was 31.8 µM (active); in experiment [4], 9.53 µM (active); in experiment [6], 43.6 µM (active).
As to `O=c1cc(-c2cccs2)oc2ccc(Cl)cc12`, the IC50 is 18 µM (active) in [2], > 100 µM (inactive) in experiment [3], 7.72 µM (active) in experiment [4] and > 100 µM (inactive) in experiment [6]. Besides, the EC50 in [7] is 3.83 µM (active); in [8], 5.5 µM (active); in [9], > 120 µM (not active).

For the origin of these results see ChEMBL document CHEMBL1201862, “PubChem BioAssay data set” (2004).
